Among the data in patent publication US7452887B2, “Quinoline- and isoquinoline-based compounds exhibiting ATP-utilizing enzyme inhibitory activity, and compositions, and uses thereof” (Amphora Discovery Corporation, priority 2004, dated 2008) are Activity values, retold here.

Common to all, as to assay: HTS ATP-utilizing enzyme assay, off-chip mobility-shift (Caliper HTS 250)
Common to all, as to assay type: biochemical
What all share (conditions): test compound 10 μM, kinase listed = active (greater than six-sigma from the mean activity of inactive compounds)

One experiment has as its target KIT (Homo sapiens, UniProt P10721). The essentials:
(§1)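 Inhibition is reported from a single 10 μM concentration. Kinase phosphorylates a peptide substrate over 2.5 hrs at 20° C. to 22° C. before EDTA termination. Potential hits are those beyond six-sigma statistical limits.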

For another experiment, the target named is T1, DYRK2 (Homo sapiens, UniProt Q92630).
T1 sequence (Q92630 1-601): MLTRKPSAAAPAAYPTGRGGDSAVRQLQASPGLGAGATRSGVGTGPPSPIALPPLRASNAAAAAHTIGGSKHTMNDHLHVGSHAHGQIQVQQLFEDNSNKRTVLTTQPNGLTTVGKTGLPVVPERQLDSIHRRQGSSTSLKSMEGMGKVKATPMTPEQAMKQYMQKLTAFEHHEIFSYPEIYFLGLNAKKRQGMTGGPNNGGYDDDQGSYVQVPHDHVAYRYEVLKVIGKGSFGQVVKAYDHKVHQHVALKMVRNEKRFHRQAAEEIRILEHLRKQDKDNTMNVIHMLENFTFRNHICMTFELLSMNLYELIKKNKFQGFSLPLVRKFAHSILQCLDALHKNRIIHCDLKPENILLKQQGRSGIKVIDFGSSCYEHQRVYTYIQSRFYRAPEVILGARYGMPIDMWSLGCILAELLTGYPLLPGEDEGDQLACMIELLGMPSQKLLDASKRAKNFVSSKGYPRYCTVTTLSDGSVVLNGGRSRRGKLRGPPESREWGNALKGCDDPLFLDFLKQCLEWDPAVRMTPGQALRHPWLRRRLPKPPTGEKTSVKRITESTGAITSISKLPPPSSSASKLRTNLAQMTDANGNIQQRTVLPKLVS
The method in brief:
as §1

Another experiment deals with C-TAK1 (Homo sapiens, UniProt P27448). The method in brief:
as §1

For another experiment, the target named is MAPKAPK2 (Homo sapiens, UniProt P49137). The method in brief:
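Phosphorylation of a peptide substrate was quantified by Caliper mobility-shift separation of substrate and product after 2.5 h at 20-22 °C, with compounds tested at 10 μM. Inhibition was normalized to EDTA-quenched (100%) and DMSO (0%) controls; six-sigma thresholds flagged actives.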

The target in the next experiment is CHEK2 (Homo sapiens, UniProt O96017). The essentials:
as §1

A further experiment concerns the target T2, NEK2 (Homo sapiens, UniProt P51955).
T2 sequence (P51955 1-445): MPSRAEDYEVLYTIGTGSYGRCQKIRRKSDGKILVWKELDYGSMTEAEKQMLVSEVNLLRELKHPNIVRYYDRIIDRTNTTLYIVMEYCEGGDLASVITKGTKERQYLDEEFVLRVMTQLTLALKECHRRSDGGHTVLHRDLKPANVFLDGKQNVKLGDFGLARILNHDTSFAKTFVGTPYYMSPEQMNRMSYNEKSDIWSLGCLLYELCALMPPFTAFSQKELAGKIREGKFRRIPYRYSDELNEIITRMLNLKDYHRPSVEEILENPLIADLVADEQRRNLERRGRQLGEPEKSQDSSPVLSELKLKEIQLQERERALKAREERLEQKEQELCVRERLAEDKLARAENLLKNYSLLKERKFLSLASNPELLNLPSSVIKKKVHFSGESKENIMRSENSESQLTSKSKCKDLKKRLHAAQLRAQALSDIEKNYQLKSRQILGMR
The essentials:
as §1

The target of a further experiment is T3, PRAK (Homo sapiens, UniProt Q8IW41).
T3 sequence (Q8IW41 1-473): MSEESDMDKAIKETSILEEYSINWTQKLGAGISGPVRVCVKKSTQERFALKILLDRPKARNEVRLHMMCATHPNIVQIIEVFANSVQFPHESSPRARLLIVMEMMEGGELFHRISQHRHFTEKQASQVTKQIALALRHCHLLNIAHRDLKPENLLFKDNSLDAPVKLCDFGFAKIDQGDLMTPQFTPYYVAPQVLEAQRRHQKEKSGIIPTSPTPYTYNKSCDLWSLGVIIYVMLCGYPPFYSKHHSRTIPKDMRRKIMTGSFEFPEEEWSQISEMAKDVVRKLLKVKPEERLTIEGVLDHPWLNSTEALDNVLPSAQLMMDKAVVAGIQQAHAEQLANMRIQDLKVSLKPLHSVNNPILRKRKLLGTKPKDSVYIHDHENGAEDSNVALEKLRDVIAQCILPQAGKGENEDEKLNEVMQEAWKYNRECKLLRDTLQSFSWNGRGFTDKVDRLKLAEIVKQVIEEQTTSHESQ
The method in brief:
as §1

The target in another experiment is T4, BMX (Homo sapiens, UniProt P51813).
T4 sequence (P51813 1-675): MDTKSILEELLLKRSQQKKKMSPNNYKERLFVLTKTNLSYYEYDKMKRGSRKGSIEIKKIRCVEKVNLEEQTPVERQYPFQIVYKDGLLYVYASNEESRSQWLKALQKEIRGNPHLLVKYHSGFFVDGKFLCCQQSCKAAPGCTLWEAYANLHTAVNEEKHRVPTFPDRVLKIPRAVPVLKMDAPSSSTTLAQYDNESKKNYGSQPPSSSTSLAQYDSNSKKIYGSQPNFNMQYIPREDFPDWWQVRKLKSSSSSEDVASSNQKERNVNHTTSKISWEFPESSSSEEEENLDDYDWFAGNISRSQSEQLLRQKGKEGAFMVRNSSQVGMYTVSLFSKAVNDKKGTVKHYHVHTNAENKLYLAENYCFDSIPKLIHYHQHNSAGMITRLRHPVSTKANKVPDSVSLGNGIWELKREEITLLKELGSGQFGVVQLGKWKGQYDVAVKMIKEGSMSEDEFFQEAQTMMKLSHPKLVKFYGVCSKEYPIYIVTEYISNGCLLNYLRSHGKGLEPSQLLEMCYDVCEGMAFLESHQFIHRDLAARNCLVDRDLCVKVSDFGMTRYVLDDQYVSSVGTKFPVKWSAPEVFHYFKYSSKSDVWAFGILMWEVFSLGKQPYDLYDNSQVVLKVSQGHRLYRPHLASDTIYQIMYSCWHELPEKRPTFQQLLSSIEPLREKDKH
The method in brief: as §1

Chain of KIT (P10721 26-976): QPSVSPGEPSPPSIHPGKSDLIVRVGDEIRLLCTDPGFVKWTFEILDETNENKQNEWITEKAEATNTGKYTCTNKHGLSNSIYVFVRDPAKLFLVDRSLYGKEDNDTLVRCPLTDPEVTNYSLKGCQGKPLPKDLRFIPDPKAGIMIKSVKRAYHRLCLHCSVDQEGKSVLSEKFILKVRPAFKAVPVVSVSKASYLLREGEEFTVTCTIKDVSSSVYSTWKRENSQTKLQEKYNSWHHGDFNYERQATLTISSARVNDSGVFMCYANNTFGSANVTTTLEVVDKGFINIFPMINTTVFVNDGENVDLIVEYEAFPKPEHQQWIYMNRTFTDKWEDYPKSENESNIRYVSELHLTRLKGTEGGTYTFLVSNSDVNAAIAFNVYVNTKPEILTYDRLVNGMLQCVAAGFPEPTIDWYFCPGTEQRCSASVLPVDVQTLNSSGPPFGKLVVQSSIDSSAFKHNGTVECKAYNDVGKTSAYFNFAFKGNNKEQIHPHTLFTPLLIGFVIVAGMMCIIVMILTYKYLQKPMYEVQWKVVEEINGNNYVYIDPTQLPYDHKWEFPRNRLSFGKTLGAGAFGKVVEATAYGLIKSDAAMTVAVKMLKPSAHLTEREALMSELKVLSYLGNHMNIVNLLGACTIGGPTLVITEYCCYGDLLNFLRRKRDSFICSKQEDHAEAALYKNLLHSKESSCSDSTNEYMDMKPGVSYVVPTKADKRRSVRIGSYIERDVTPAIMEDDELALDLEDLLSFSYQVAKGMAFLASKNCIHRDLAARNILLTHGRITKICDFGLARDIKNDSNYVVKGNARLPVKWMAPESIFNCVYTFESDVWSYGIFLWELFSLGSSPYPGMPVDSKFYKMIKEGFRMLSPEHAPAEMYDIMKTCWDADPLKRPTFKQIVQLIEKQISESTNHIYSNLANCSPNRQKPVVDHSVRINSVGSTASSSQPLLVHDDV
Chain of MAPKAPK2 (P49137 whole entry): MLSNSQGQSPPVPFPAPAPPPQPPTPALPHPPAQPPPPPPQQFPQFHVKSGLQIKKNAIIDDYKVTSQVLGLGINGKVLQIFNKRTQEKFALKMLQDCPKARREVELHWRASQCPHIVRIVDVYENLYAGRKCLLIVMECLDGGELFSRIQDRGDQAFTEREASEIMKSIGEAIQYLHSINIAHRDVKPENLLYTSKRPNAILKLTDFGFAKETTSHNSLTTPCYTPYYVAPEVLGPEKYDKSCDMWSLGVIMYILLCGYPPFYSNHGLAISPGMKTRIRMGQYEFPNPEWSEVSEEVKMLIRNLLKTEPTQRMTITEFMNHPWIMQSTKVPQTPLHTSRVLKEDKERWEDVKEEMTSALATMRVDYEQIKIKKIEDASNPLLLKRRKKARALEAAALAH
Chain of CHEK2 (O96017 whole entry): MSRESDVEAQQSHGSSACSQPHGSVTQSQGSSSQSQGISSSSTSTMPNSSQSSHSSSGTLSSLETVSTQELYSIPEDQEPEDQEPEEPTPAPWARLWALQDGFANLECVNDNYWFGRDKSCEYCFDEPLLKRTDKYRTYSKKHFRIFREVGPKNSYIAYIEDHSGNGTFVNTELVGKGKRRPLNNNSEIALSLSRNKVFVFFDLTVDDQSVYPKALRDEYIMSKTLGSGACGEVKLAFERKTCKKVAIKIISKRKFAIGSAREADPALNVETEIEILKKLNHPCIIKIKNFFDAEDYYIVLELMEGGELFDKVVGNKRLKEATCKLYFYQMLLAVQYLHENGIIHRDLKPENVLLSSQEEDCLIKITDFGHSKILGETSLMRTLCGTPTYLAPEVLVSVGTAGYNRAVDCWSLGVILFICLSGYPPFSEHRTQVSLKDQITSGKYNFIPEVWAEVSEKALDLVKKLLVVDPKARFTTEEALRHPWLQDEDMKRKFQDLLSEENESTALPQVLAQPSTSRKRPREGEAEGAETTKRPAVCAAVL
Chain of C-TAK1 (P27448 whole entry): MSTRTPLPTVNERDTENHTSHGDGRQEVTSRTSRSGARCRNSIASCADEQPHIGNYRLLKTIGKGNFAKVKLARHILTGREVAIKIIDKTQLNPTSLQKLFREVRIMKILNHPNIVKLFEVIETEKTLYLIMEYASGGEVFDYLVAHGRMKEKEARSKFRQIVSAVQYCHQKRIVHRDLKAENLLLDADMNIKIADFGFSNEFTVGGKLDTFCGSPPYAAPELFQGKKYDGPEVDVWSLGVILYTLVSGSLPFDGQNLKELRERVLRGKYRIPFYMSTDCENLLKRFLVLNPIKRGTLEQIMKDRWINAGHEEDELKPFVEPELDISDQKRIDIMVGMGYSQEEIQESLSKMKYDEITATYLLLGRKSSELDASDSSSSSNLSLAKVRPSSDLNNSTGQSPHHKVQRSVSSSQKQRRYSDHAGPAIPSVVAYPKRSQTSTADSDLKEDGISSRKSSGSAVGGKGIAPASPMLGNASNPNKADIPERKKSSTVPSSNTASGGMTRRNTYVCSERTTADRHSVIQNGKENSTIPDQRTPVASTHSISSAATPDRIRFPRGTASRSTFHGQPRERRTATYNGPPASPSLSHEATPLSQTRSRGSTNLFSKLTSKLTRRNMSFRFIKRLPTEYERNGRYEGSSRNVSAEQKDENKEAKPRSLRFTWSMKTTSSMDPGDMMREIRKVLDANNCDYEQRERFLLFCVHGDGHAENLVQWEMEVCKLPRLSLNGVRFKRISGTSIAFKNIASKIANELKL

As to `CN(C)C1CCN(c2ccc(Nc3ccnc4ccc(-c5ccc(C#N)cc5)cc34)cc2)CC1` [4-(4-(4-(4-(dimethylamino)piperidin-1-yl)phenylamino)quinolin-6-yl)benzonitrile], the Activity result at KIT is “KIT”.

`COc1ccc(-c2ccc3nccc(Nc4ccc(N5CCN(CCN(C)C)CC5)cc4)c3c2)cc1` [N-(4-(4-(2-(dimethylamino)ethyl)piperazin-1-yl)phenyl)-6-(4-methoxyphenyl)quinolin-4-amine]: the Activity entry on DYRK2 is on record as “DYRK2”; at C-TAK1 it was “C-TAK1”; at MAPKAPK2, “MAPKAPK2”.

On to `Cc1csc(-c2ccc3nccc(Nc4ccc(N5CCN(C)CC5)cc4)c3c2)c1` [N-(4-(4-methylpiperazin-1-yl)phenyl)-6-(4-methylthiophen-2-yl)quinolin-4-amine], for which the Activity entry on CHEK2 is given as “CHEK2”; on NEK2, “NEK2”; on PRAK it was “PRAK”; at MAPKAPK2, “MAPKAPK2”.

For the molecule `COc1cccc(-c2ccc3nccc(Nc4ccc(N5CCN(C)CC5)cc4)c3c2)c1` [6-(3-methoxyphenyl)-N-(4-(4-methylpiperazin-1-yl)phenyl)quinolin-4-amine], the Activity result at DYRK2 is “DYRK2”; at NEK2 it was “NEK2”; on PRAK it was “PRAK”.

Take `CCOc1cccc(-c2ccc3nccc(Nc4ccc(N5CCN(C)CC5)cc4)c3c2)c1` [6-(3-ethoxyphenyl)-N-(4-(4-methylpiperazin-1-yl)phenyl)quinolin-4-amine]: the Activity entry is reported as “CHEK2” at CHEK2, “NEK2” at NEK2, “PARK” on PRAK and “MAPKAPK2” on MAPKAPK2.

For `COc1ccc(-c2ccc3nccc(Nc4ccc(N5CCN(C)CC5)cc4)c3c2)cc1` [6-(4-methoxyphenyl)-N-(4-(4-methylpiperazin-1-yl)phenyl)quinolin-4-amine], the Activity result on DYRK2 was “DYRK2”; at NEK2, “NEK2”; on PRAK, “PRAK”; at MAPKAPK2 it was “MAPKAPK2”.

As for `CC(C)N1CCN(c2ccc(Nc3ccnc4ccc(-c5ccccc5)cc34)cc2)CC1` [N-(4-(4-isopropylpiperazin-1-yl)phenyl)-6-phenylquinolin-4-amine], the Activity result on KIT is reported as “KIT”; at MAPKAPK2, “MAPKAPK2”.

For the molecule `CCC(C)N1CCN(c2ccc(Nc3ccnc4ccc(-c5ccc(C#N)cc5)cc34)cc2)CC1` (centres unmarked) [4-(4-(4-(4-sec-butylpiperazin-1-yl)phenylamino)quinolin-6-yl)benzonitrile], the figures for the Activity entry at BMX and on MAPKAPK2 were “BMX” and “MAPKAPK2”, respectively.

In the case of `COc1ccc(-c2ccc3nccc(Nc4ccc(N5CCN(C(C)C)CC5)cc4)c3c2)cc1` [N-(4-(4-isopropylpiperazin-1-yl)phenyl)-6-(4-methoxyphenyl)quinolin-4-amine], the Activity result is recorded as “BMX” at BMX and “MAPKAPK2” at MAPKAPK2.

Turning to `N#Cc1ccc(-c2ccc3nccc(Nc4ccc(C5CCNCC5)cc4)c3c2)cc1` [4-(4-(4-(piperidin-4-yl)phenylamino)quinolin-6-yl)benzonitrile], at KIT, the Activity result was “KIT”.

Regarding `CN1CCN(c2ccc(Nc3ccnc4ccc(-c5cccc6cccnc56)cc34)cc2)CC1` [N-(4-(4-methylpiperazin-1-yl)phenyl)-6,8′-biquinolin-4-amine], the Activity entry was “BMX” on BMX, “PRAK” at PRAK, “KIT” at KIT and “MAPKAPK2” at MAPKAPK2.

Take `CN1CCN(c2ccc(Nc3ccnc4ccc(-c5ccco5)cc34)cc2)CC1` [6-(furan-2-yl)-N-(4-(4-methylpiperazin-1-yl)phenyl)quinolin-4-amine]: the Activity entry is given as “CHEK2” on CHEK2, “PRAK” on PRAK and “MAPKAPK2” at MAPKAPK2.

With `COc1ccc(-c2ccc3nccc(Nc4ccc(N5CCN(C)CC5)cc4)c3c2)cc1OC` [6-(3,4-dimethoxyphenyl)-N-(4-(4-methylpiperazin-1-yl)phenyl)quinolin-4-amine], the Activity entry at DYRK2 is “DYRK2”; at NEK2, “NEK2”; on PRAK it was “PRAK”; at MAPKAPK2, “MAPKAPK2”.

For the molecule `C=Cc1ccc(-c2ccc3nccc(Nc4ccc(N5CCN(C)CC5)cc4)c3c2)cc1` [N-(4-(4-methylpiperazin-1-yl)phenyl)-6-(4-vinylphenyl)quinolin-4-amine], the Activity entry on CHEK2 is recorded as “CHEK2”; at NEK2, “NEK2”; on PRAK, “PRAK”; at MAPKAPK2, “MAPKAPK2”.
